The source of these data is patent publication US8828435B2, “Buccal delivery system” (Lingual Consegna Pty Ltd, priority 2006, dated 2014).

Like-named read-outs stand apart in the source and are kept apart here. Bounds are passed on as bounds.

The conditions of series [1]: background statement, cited from earlier work; for absorbed fraction of the ingested dose: oral.
Series [2] is described as follows: Open-label clinical trial: plasma hormone pharmacokinetics after buccal LINGUET tablet, single dose and two weeks twice daily. In kind it is in vivo, post-menopausal women. The conditions noted are these: for absorption from the LINGUET tablet: achieved concentrations found in normal young menstruating women. How it is done:
The trial was conducted with approval of an ethics committee within the hospital.
The excipients in the LINGUET tablets consisted of silica gel, magnesium stearate, acacia, stevia and polyethylene glycol with a wildberry flavour. The LINGUET tablets employed in this trial were formulated in a single batch for the study using the process according to the invention as described in example 2 above. The LINGUET tablets were provided by Richard Stenlake Compounding Pharmacist (Bondi Junction, Australia).
The study was an open-label investigation in six post-menopausal women. Before entry into the trial, subjects gave informed consent, and underwent medical and biochemical screening. Subjects were in general good health, and at least one year post-menopausal.
Subjects discontinued their prescribed HRT therapy as well as any herbal or alternative medicines not less than three days prior to the first study day. Subjects presented to the Clinical Trials Centre on the morning of each study day after an overnight fast. An indwelling cannula was inserted into a forearm vein and a baseline blood specimen collected.
On the first day, a half-LINGUET tablet was placed in the buccal cavity (between the cheek and the gum) and allowed to dissolve. Subjects were instructed not to swallow the formulation. […] Subjects rinsed their mouths with water at 45 min. Blood samples were collected via the cannula at timed intervals over 24 h. Subjects were discharged, but continued to take half a LINGUET tablet, twice daily, for the following two weeks. Subjects then re-presented to the Clinical Trials Centre where the morning dose was taken and further blood samples were collected at timed intervals over the dosage interval of 12 h.
Blood samples were schedule for collection following the single dose at the following times:
Pre-dose (0), 0.25, 0.5, 0.75, 1.0, 1.5, 2.0, 3.0, 4.0, 6.0, 8.0, 12.0, 16.0, […] and 24.0 h following the single dose, and at pre-dose (0), 0.25. 0.5, 0.75, 1.0, 2.0, 2.5, 3.0, 4.0, 6.0, 8.0, 10.0 and 12 h after the two-week dosing interval (steady-state). Actual times were recorded, and these were used for the pharmacokinetic calculations.
Plasma concentrations of hormones were determined using routine validated, radioimmunoassay techniques in the hospital laboratory (Sydpath, St Vincent's Hospital, Sydney). The laboratory is an accredited pathology provider that participates in national quality assurance programmes for hormonal analysis.
DHEA was monitored as the sulphate metabolite (DHEAS), not as the administered hormone.

A short description of series [3]: Hormone concentrations in saliva after buccal LINGUET tablet (radioimmunoassay). The class given is in vivo, post-menopausal women. The conditions noted are these: elevation maintained over the following 8-12 hours. How it is done: Saliva was collected according to the standardized directions provided by the laboratory, Australian Reference Laboratories (Melbourne), and stored frozen (−20° C.) prior to shipping for hormonal analysis. In brief, subjects rinsed their mouths thoroughly with water and waited 5-10 min before swallowing any saliva in the mouth. Subjects then expressed saliva directly into the collection tubes.
Saliva samples were obtained for single dose estimation at the following times: pre-dose (0), and 1.0, 4.0, 8.0, 12.0, 16.0 and 24 h after dosing. For steady-state analysis, saliva was collected at pre-dose (0), and 1.0, 4.0, 8.0 and 12.0 h after LINGUET tablet administration.
Hormone concentrations in saliva were conducted by the […] (Melbourne) using validated, commercial radioimmunoassays. This laboratory is similarly an accredited pathology provider.

The mark [4] stands for this setting: plasma, single and multiple dosing.

On to `O=P(O)(O)C(O)(Cc1cccnc1)P(=O)(O)O` [risedronate], for which, in series [1], the “absorbed fraction of the ingested dose” value is “about 1%”.
Broadly, the Cmax is the highest concentration seen after dosing. What is called Tmax is the time at which the peak concentration occurs. For the compound `CC(=O)[C@H]1CC[C@H]2[C@@H]3CCC4=CC(=O)CC[C@]4(C)[C@H]3CC[C@]12C` [Progesterone, progesterone], the Cmax came out at 22.9 ± 6.9 nM in series [2] (female, human, in vivo, Cmax Day 1) and 26.1 ± 7.6 nM in series [2] (female, human, in vivo, Cmax Steady-state). Further, the Tmax was 1.5 h in series [2] (female, human, in vivo, Tmax Day 1) and 1 h in series [2] (female, human, in vivo, Tmax Steady-state). Moreover, in series [2] (in vivo), the “plasma concentration at steady-state versus physiological level” value is “sustained at concentrations usually associated with physiological and biological activity in young normal women”. For the same compound, the “time until concentrations decreased to below those generally associated with biological activity in the endometrium” value in series [2] (in vivo) was “within five hours”. Further, the “concentrations in saliva compared with blood following use of the LINGUET tablet” value in series [3] is reported as “elevated many times higher than in blood”.
Regarding `C[C@]12CC[C@H](OS(=O)(=O)O)CC1=CC[C@@H]1[C@@H]2CC[C@]2(C)C(=O)CC[C@@H]12` [DHEA-sulphate, dehydroepiandrosterone-sulphate], in series [2] (plasma, after the first dose (half LINGUET tablet, buccal)), the “Tmax Day 1” value is reported as 6.0 h. Besides, the maximum concentration (Cmax) came out at 2.2 ± 1.1 nM in series [2] (plasma, after the first dose (half LINGUET tablet, buccal), read-out: Cmax Day 1) and 4 ± 2 nM in series [2] (plasma, after two weeks of twice daily treatment, read-out: Cmax Steady-state). In series [2] (plasma, after two weeks of twice daily half-tablet, six women, mean ± spread), the “Trough concentration at steady-state” value was 2.56 ± 1.99 nmol/L. Moreover, the “Tmax Steady-state” value in series [2] (plasma, after two weeks of twice daily treatment) was determined as 1.5 h.
For the compound `C[C@]12CC[C@H](O)CC1=CC[C@@H]1[C@@H]2CC[C@]2(C)C(=O)CC[C@@H]12` [DHEA, dehydroepiandrosterone], the “absorption from the LINGUET tablet” value in series [2] (plasma) is on record as “readily absorbed”. The “change of blood concentrations of DHEAS” value in series [2] (single dose one-half LINGUET tablet (5 mg DHEA), over 5-10 hours) is recorded as “doubling”. In series [1], the oral bioavailability entry is on record as “over 90%”.
In the case of `C[C@]12CC[C@@H]3c4ccc(O)cc4CC[C@H]3[C@@H]1CC[C@@H]2O` [Oestradiol, 17-β-oestradiol], the “concentrations in saliva compared with blood following use of the LINGUET tablet” value in series [3] is “elevated many times higher than in blood”.
As for `C[C@]12CC[C@H]3[C@@H](CCC4=CC(=O)CC[C@@]43C)[C@@H]1CC[C@@H]2O` [Testosterone, testosterone], the peak concentration (Cmax) in series [2] (female, human, in vivo, plasma, after the first dose (half LINGUET tablet, buccal), read-out: Cmax Day 1) is 31.6 ± 10.9 nM. Moreover, the time of peak concentration (Tmax) in series [2] (female, human, in vivo, plasma, after the first dose (half LINGUET tablet, buccal), read-out: Tmax Day 1) was determined as 0.6 h. Also, in series [2] (female, human, in vivo, plasma, after two weeks of twice daily half-tablet, six women, mean ± spread, read-out: Trough concentration at steady-state), the concentration at 2 weeks is 0.67 ± 0.28 nM. Moreover, in series [2] (setting [4]), the “duration of markedly increased plasma concentrations” value is “up to 4 hours”, the “return to pre-treatment values” is at most 8 h and the “time of peak concentrations (mean)” value was determined as 0.6 h. The “absorption from the LINGUET tablet” value in series [2] (plasma) is listed as “readily absorbed”.
Take `NCCCC(O)(P(=O)(O)O)P(=O)(O)O` [alendronate]: the “absorbed fraction of the ingested dose” value in series [1] is on record as “about 1%”.
